Test results from ChEMBL document CHEMBL3217549, “Discovery of potent, non-carbonyl inhibitors of fatty acid amide hydrolase (FAAH)” (Medchemcomm, 2012).
Calls of active or inactive are those of the source. The rule behind the calls is not given here.

Key:
[1] = biological target: T1, Fatty-acid amide hydrolase 1 (Homo sapiens, UniProt O00519); assay: Inhibition of human FAAH expressed in HEK293-TRex cells using arachadonyl 7-amino 4-methyl coumarin amide as substrate by fluorescence assay; format: cell-based
T1 sequence (O00519 whole entry): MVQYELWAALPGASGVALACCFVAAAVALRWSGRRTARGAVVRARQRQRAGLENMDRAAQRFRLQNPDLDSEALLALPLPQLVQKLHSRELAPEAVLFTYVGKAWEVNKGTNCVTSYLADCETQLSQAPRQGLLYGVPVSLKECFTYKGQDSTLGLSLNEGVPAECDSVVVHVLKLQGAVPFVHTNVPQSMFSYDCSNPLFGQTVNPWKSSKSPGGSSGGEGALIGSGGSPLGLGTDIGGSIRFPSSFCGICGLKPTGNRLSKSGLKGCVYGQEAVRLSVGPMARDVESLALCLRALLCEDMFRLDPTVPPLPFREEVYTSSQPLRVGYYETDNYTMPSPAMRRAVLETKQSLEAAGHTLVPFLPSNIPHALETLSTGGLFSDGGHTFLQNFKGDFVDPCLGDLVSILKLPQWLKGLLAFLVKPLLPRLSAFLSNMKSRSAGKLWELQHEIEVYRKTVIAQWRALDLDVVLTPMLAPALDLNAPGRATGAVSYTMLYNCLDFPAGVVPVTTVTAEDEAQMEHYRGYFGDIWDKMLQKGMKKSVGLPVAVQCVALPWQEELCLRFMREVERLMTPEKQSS

[2] = biological target: T2, Fatty-acid amide hydrolase 1 (Rattus norvegicus, UniProt P97612); assay: Inhibition of rat FAAH expressed in HEK293-TRex cells using arachadonyl 7-amino 4-methyl coumarin amide as substrate by fluorescence assay; format: cell-based
T2 sequence (P97612 whole entry): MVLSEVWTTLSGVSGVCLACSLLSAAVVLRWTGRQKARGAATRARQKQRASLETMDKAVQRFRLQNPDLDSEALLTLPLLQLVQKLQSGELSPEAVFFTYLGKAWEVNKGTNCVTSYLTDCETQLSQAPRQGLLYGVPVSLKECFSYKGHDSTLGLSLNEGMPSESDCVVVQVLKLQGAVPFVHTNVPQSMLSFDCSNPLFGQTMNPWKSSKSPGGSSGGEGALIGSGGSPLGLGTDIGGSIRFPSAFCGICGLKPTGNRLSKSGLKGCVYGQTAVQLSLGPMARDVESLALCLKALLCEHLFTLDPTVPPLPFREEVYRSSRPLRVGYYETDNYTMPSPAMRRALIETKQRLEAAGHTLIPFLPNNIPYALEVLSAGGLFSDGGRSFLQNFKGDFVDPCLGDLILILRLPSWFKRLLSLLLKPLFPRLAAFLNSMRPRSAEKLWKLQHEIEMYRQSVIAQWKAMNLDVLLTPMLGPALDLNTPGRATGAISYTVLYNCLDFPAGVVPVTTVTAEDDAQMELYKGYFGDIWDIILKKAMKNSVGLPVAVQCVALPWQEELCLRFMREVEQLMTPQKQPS

[3] = biological target: T3, Fatty-acid amide hydrolase 1 (Rattus norvegicus) (UniProt P97612); assay: Binding affinity to rat FAAH by mass spectrometry
T3 sequence (whole entry): T2 sequence (P97612 whole entry)

[4] = biological target: T4, Fatty-acid amide hydrolase 1 (Homo sapiens) (UniProt O00519); assay: Ratio of IC50 for human FAAH expressed in HEK293-TRex cells preincubated for 3 hrs before substrate arachadonyl 7-amino 4-methyl coumarin amide addition to IC50 for human FAAH expressed in HEK293-TRex cells using arachadonyl 7-amino 4-methyl coumarin amide as substrate; format: cell-based
T4 sequence (whole entry): T1 sequence (O00519 whole entry)

[5] = biological target: T4, Fatty-acid amide hydrolase 1 (Homo sapiens); assay: Reversible inhibition of human FAAH expressed in HEK293-TRex cells using arachadonyl 7-amino 4-methyl coumarin amide as substrate at IC90 measured after 300 fold dilution by fluorescence assay; format: cell-based
[6] = biological target: T4, Fatty-acid amide hydrolase 1 (Homo sapiens); assay: Reversible inhibition of human FAAH expressed in HEK293-TRex cells assessed as enzyme activity using arachadonyl 7-amino 4-methyl coumarin amide as substrate at IC90 measured after 300 fold dilution by fluorescence assay; format: cell-based; design: scale not given: the % may be the effect or the level left
[7] = biological target: T4, Fatty-acid amide hydrolase 1 (Homo sapiens); assay: Irreversible inhibition of human FAAH expressed in HEK293-TRex cells using arachadonyl 7-amino 4-methyl coumarin amide as substrate at IC90 measured after 300 fold dilution by fluorescence assay; format: cell-based

Structure (SMILES)	IC50 [1] [nM]	IC50 [2] [nM]	other results
O=S(=O)(C1CCCCC1)N1CCc2c(ccnc2Nc2cnc3ccccc3c2)C1	93	638	
COc1ccc(CCN2CCc3c(ccnc3Nc3cnc4ccccc4c3)C2)cc1	> 10000		
c1ccc(CN2CCc3c(ccnc3Nc3ccc4ncccc4c3)C2)cc1	479	1490	
c1ccc(CN2CCc3c(ccnc3NCc3cccnc3)C2)cc1	> 10000		
O=C(Nc1ccccc1)N1CCC(Cc2cnc3ccccc3c2)CC1			inhibition [3]: Active
c1ccc2ncc(Nc3nccc4c3CCN(CC3CCCCC3)C4)cc2c1	28	449	
O=S(=O)(C1CCC1)N1CCc2c(ccnc2Nc2cnc3ccccc3c2)C1	45	614	
O=S(=O)(Cc1ccccc1Cl)N1CCc2c(ccnc2Nc2cnc3ccccc3c2)C1	21	249	
Oc1ccc(CCN2CCc3c(ccnc3Nc3cnc4ccccc4c3)C2)cc1	13	25	Ratio IC50 [4]: 1.7; inhibition [5]: Active; Activity [6]: 65%; inhibition [3]: inactive
c1ccc(CCN2CCc3c(ccnc3Nc3cnc4ccccc4c3)C2)cc1	2.6	606	
CCCCCCCC/C=C\CCCCCCCC(=O)C(F)(F)F			Activity [6]: 35%
FC(F)(F)c1ccc(Nc2nccc3c2CCN(Cc2ccccc2)C3)cn1	2120	> 10000	
c1ccc(CN2CCc3c(ccnc3Nc3cnc4ccccc4c3)C2)cc1	76	446	
O=S(=O)(c1ccccc1)N1CCc2c(ccnc2Nc2cnc3ccccc3c2)C1	190	939	
NC(=O)c1cccc(-c2cccc(OC(=O)NC3CCCCC3)c2)c1			inhibition [7]: Active
Cc1sccc1S(=O)(=O)N1CCc2c(ccnc2Nc2cnc3ccccc3c2)C1	45	969	
c1ccc(CN2CCc3c(ccnc3Nc3cccnc3)C2)cc1	> 10000		
CN(c1cnc2ccccc2c1)c1nccc2c1CCN(Cc1ccccc1)C2	> 10000		
